Results from patent US20030181390A1, “Amino acid conjugates providing for sustained systemic concentrations of GABA analogues” (priority 2002, published 2003).
Like-named read-outs stand apart in the source and are kept apart here.

Experiments:
[1] = Caco-2 homogenate S9 stability / release of gabapentin; assay type: in vitro ADME; settings: incubation with Caco-2 homogenate for 1 hour
Method: The stability of aminoacyl-gabapentin conjugates was evaluated by incubating the conjugates in the various tissue and enzyme-containing preparations listed in Table 1 below.
Tissue homogenates and plasma samples were obtained from commercial sources (Pel-Freez Biologicals, Rogers, Ariz., and GenTest Corporation, Woburn, Mass.). Stability of prodrugs toward the specific enzyme aminopeptidase was also evaluated by incubation with the purified enzyme. Experimental conditions used for the in vitro studies were as follows. Each preparation was incubated with test compound at 37° C. for one hour. Aliquots (50 μL) were removed at 0, 30, and 60 min and quenched with 0.1% trifluoroacetic acid in acetonitrile. Samples were then centrifuged and analyzed for the presence of prodrug and released gabapentin by LC/MS/MS as described below.
Concentrations of prodrug or gabapentin in tissue extracts were determined by direct injection onto an API 2000 LC/MS/MS equipped with an Agilent 1100 binary pump and autosampler. Separation was achieved using a 3.5 μm Zorbax Ellipse XDB-C8 4.4×150 mm column heated to 45° C. during the analysis. The mobile phases were: 0.1% formic acid in water (A) and 0.1% formic acid in acetonitrile (B). The gradient condition was: 2% B for 0.5 min, increasing to 90% B in 2.0 min, maintained for 2.5 min and returning to 2% B for 2 min. A TurboIonSpray source was used on the API 2000. The analysis was performed in the positive ion mode and MRM transitions of 172.0/137.2 were used in the analysis of gabapentin (2). Ten microliters of the sample extracts were injected. Peaks were integrated using Analyst quantitation software. The method was linear for (2) over the concentration range 0.002 to 2.5 μg/mL respectively.
The stability of gabapentin-containing prodrugs to Caco-2 homogenates was evaluated as follows:
Caco-2 Homogenate S9 Stability: Caco-2 cells were grown for 21 days prior to harvesting. Culture medium was removed and cell monolayers were rinsed and scraped off into ice-cold 10 mM sodium phosphate/0.15 M potassium chloride, pH 7.4. Cells were lysed by sonication at 4° C. using a probe sonicator. Lysed cells were then transferred into 1.5 mL centrifuge vials and centrifuged at 9000 g for 20 min at 4° C. The resulting supernatant (Caco-2 cell homogenate S9 fraction) was aliquoted into 0.5 mL vials and stored at −80° C. until used.
For stability studies, prodrug (5 μM) was incubated in Caco-2 homogenate S9 fraction (0.5 mg protein per mL) for 60 min at 37° C. Concentrations of intact prodrug and released drug were determined at zero time and 60 minutes using LC/MS/MS.

in vivo [2] = settings: rat; for Cmax for prodrug (Cmax PD) in plasma: single oral dose of prodrug, 25 mg-equivalents of gabapentin per kg
Method: The pharmacokinetics of the prodrugs prepared in Examples 1 and 3 were examined in rats. […] Animals were fasted overnight prior to dosing and until 4 hours post-dosing. Serial blood samples were obtained over 24 hours following dosing and blood was processed for plasma by centrifugation. Plasma samples were stored at −80° C. until analyzed.
Plasma (50 μL) was precipitated by addition of […] of methanol and supernatant was injected directly onto the LC/MS/MS system. […] Following oral administration of gabapentin prodrugs, concentrations of prodrug and gabapentin in plasma were monitored over 24 hours.

[3] = monkey; for increase in gabapentin exposure (as measured by AUC) for a 7.5-fold increase in dose / AUC for gabapentin (AUC G) / Cmax for gabapentin (Cmax G): oral; for increase in gabapentin exposure (as measured by AUC) for a 7.5-fold increase in dose: 10 to 75 mg-eq/kg
Method: (§6) The prodrug was administered orally to four adult male monkeys (approximate body weight of 6.5 kg) via an oral nasogastric tubeas solutions in water or PEG 400. The dose was 10 or 75 mg-equivalents of gabapentin per kg body weight. Animals were fasted overnight before the study and for 4 hours post-dosing. Blood samples (1.0 mL) were obtained via femoral or cephalic venipuncture at intervals over 48 hours after oral dosing. Blood was processed immediately for plasma and plasma was frozen at −80° C. until analyzed. […] Oral bioavailability was determined by comparison of area under the gabapentin concentration versus time curve (AUC) following oral administration of prodrug or intravenous administration of an equimolar dose of gabapentin hydrochloride.

in vivo [4] = settings: male, monkey, plasma, po
Method: as §6

[5] = man, cited from earlier work
[6] = monkey, sodium salt in water, 10 mg-equivalents of gabapentin per kg
[7] = rat, intracolonic, sodium salt, dose equivalent to 25 mg of gabapentin per kg
Method: Rats were obtained commercially and were pre-cannulated in the both the ascending colon and the jugular vein. Animals were conscious at the time of the experiment. All animals were fasted overnight and until 4 hours post-dosing. […] Blood samples (0.5 mL) were obtained from the jugular cannula at intervals over 8 hours and were quenched immediately by addition of acetonitrile/methanol to prevent further conversion of the prodrug.

[8] = rat; for fraction of prodrug absorbed intact following oral administration: oral and i.v. dosing of prodrug
PEPT1 = settings: tested at 1 mM on oocytes expressing PEPT1; normalised to 1 mM glycyl-sarcosine
Method: (§1) Rat and human PEPT1 and PEPT2 expressing CHO cell lines were prepared as described in PCT Application WO01/20331. Gabapentin-containing dipeptides were evaluated for interaction with the peptide transporters using a radiolabeled substrate uptake assay in a competitive inhibition format, as described in PCT Application WO01/20331. Transport-induced currents were also measured in Xenopus oocytes transfected with rat and human PEPT1 and PEPT2.
(§2) (b) Analysis of Electrogenic Transport in Xenopus oocytes
(§3) RNA preparation: Rat and human PEPT1 and PEPT2 transporter cDNAs were subcloned into a modified pGEM plasmid that contains 5′ and 3′ untranslated sequences from the Xenopus β-actin gene. These sequences increase RNA stability and protein expression. Plasmid cDNA was linearized and used as template for in vitro transcription (Epicentre Technologies transcription kit, 4:1 methylated:non-methylated GTP).
(§4) Xenopus oocyte isolation. Xenopus laevis frogs were anesthetized by immersion in Tricaine ([…] in deionized water) for 15 min. […]
(§5) Electrophysiology measurements. Transport currents were measured 2-14 days after injection, using a standard two-electrode electrophysiology set-up (Geneclamp 500 amplifier, Digidata 1320/PCLAMP software and ADInstruments hardware and software were used for signal acquisition).

PEPT2 = settings: tested at 1 mM on oocytes expressing PEPT2; normalised to 1 mM glycyl-sarcosine
Method: as §1, §2, §3, §4, §5

[9] = male, Sprague-Dawley, plasma, po, 25 mg/kg

N#Cc1ccc(C[C@H](N)C(=O)NCC2(CC(=O)O)CCCCC2)cc1 [1am, L-4-Cyanophenylalanine-Gabapentin]
% of prodrug surviving intact [1]: 90%
Cmax for prodrug (Cmax PD) in plasma (in vivo [2]): 22400 ng/mL

L-Tyrosine-(O-2-Bromobenzyloxycarbonyl)-Gabapentin [4d]
% of prodrug surviving intact [1]: 3%

NCC1(CC(=O)O)CCCCC1 [gabapentin]
Cmax (in vivo [2]; [9]): 10300 ng/mL
half-life (in vivo [2]; [9]): 2.4 ± 0.5 h
increase in gabapentin exposure (as measured by AUC) for a 7.5-fold increase in dose [3]: 3.2 fold
AUC (in vivo [4]; 10 mg/kg): 32100 ± 10400 ng·h/mL
Cmax (in vivo [4]; 10 mg/kg): 3700 ± 1600 ng/mL
bioavailability (in vivo [4]; 10 mg/kg): 53.9 ± 17.3%
AUC (in vivo [4]; 75 mg/kg): 102000 ± 4900 ng·h/mL
Cmax (in vivo [4]; 75 mg/kg): 10800 ± 1300 ng/mL
bioavailability (in vivo [4]; 75 mg/kg): 22.9 ± 1.1%
oral bioavailability ([5]; dose of 300 mg): about 60%
oral bioavailability ([5]; dose of 1600 mg): about 35%

N#Cc1cccc(C[C@H](N)C(=O)NCC2(CC(=O)O)CCCCC2)c1 [1al, L-3-Cyanophenylalanine-Gabapentin]
% of prodrug surviving intact [1]: 46%
Cmax for prodrug (Cmax PD) in plasma (in vivo [2]): 600 ng/mL

N[C@@H](Cc1cccc2ccccc12)C(=O)NCC1(CC(=O)O)CCCCC1 [1l, L-1-Naphthylalanine-Gabapentin]
% of prodrug surviving intact [1]: 29%
Cmax for prodrug (Cmax PD) in plasma (in vivo [2]): 500 ng/mL

N[C@@H](Cc1ccc(Br)cc1)C(=O)NCC1(CC(=O)O)CCCCC1 [1ah, L-4-Bromophenylalanine-Gabapentin]
% of prodrug surviving intact [1]: 79%
oral bioavailability (F) as gabapentin (in vivo [2]; oral 25 mg/kg (or 25 mg-equivalents of gabapentin per kg) vs intravenous gabapentin): 53%
maximum plasma concentration (Cmax) of gabapentin (in vivo [2]; single oral dose 25 mg/kg (or 25 mg-equivalents of gabapentin per kg)): 6100 ng/mL
Cmax for prodrug (Cmax PD) in plasma (in vivo [2]): 103000 ng/mL
AUC for gabapentin (AUC G) ([6]; oral): 29100 ± 3500 ng·h/mL
AUC for prodrug (AUC PD) ([6]; oral): 18900 ± 6500 ng·h/mL
Cmax for gabapentin (Cmax G) ([6]; oral): 3800 ± 1100 ng/mL
CmaxPH (Cmax for prodrug) ([6]; oral): 14900 ± 5300 ng/mL
oral bioavailability as gabapentin (F) [6]: 49.1±6.8%
area under the gabapentin plasma concentration vs. time curve relative to colonic administration of gabapentin itself [7]: > 3 fold
maximum plasma concentration of gabapentin relative to colonic administration of gabapentin itself [7]: > 3 fold
fraction of prodrug absorbed intact following oral administration [8]: about 60%
oral bioavailability of gabapentin provided by prodrug ([8]; oral dosing of prodrug): about 53%

N[C@@H](Cc1cc(F)cc(F)c1)C(=O)NCC1(CC(=O)O)CCCCC1 [1ao, L-3,5-Difluorophenylalanine-Gabapentin]
% of prodrug surviving intact [1]: 48%
Cmax for prodrug (Cmax PD) in plasma (in vivo [2]): 2900 ng/mL

NC(Cc1ccc(F)cc1F)C(=O)NCC1(CC(=O)O)CCCCC1 [1ap, D, L-2,4-Difluorophenylalanine-Gabapentin]
% of prodrug surviving intact [1]: 90%
Cmax for prodrug (Cmax PD) in plasma (in vivo [2]): 278000 ng/mL

N[C@@H](Cc1ccc(C(F)(F)F)cc1)C(=O)NCC1(CC(=O)O)CCCCC1 [1aa, L-4-Trifluoromethylphenylalanine-Gabapentin]
% of prodrug surviving intact [1]: 97%
Cmax for prodrug (Cmax PD) in plasma (in vivo [2]): 30000 ng/mL

N[C@@H](CO)C(=O)NCC1(CC(=O)O)CCCCC1 [1ax, L-Serine-Gabapentin]
oral bioavailability as gabapentin (F) ([3]; 10 mg-eq/kg): 41.5±12.2%
oral bioavailability as gabapentin (F) ([3]; 75 mg-eq/kg): 28.1±1.1%
AUC for gabapentin (AUC G) ([3]; 10 mg-eq/kg): 24700 ± 7300 ng·h/mL
Cmax for gabapentin (Cmax G) ([3]; 10 mg-eq/kg): 3700 ± 1100 ng/mL
AUC for gabapentin (AUC G) ([3]; 75 mg-eq/kg): 125000 ± 5000 ng·h/mL
Cmax for gabapentin (Cmax G) ([3]; 75 mg-eq/kg): 14500 ± 1600 ng/mL
increase in gabapentin exposure (as measured by AUC) for a 7.5-fold increase in dose [3]: 5.1 fold
fraction of prodrug absorbed intact following oral administration [8]: 15-20%

CC(C)C[C@H](CNC(=O)[C@@H](N)Cc1ccc(Br)cc1)CC(=O)O [compound 5, L-4-Bromophenylalanine-Pregabalin]
PEPT-specific current, % of Imax for Gly-Sar (PEPT1): at least 5 % of Imax for Gly-Sar
PEPT-specific current, % of Imax for Gly-Sar (PEPT2): at least 5 % of Imax for Gly-Sar
